Data as given in patent US20240076347A1, “METHODS FOR PREVENTING FUNGAL INFECTIONS” (Cidara Therapeutics, Inc., priority 2016, published 2024).
In brackets after ≈: the same amount, converted by molar mass. Several values for one entry are separate records, joined by “and”; a condition that tells them apart may be missing. Equal entries are not always repeated. Entries after “also recorded” stand apart in the source; their conditions may differ. Where two headings read alike, the source gives them in different places. Numbered stars: 1 amine (or outer) side, 2 acyl side, 3 side chain; on linkers, the order of the positions; unused ones are H or OH. Bridge positions count the residues as written; N and C are the ends. Square brackets hold non-standard residues; d marks the D form. Peptide text beside a SMILES is read from it. * marks the point of attachment. pTerphenylCO(4''-OnC5H11) = CCCCCOc1ccc(-c2ccc(-c3ccc(C(=O)*)cc3)cc2)cc1; Orn(4R-OH,5R-OH) = O=C([C@H](C[C@@H](O)[C@@H](O)N[*:3])N[*:1])[*:2]; hTyr(3S-OH,4S-OH) = N[C@H](C(=O)O)[C@H](O)[C@@H](O)c1ccc(O)cc1; Pro(3S-OH,4S-Me) = C[C@H]1CN[C@H](C(=O)O)[C@H]1O; Hyp = O=C(O)[C@@H]1C[C@@H](O)CN1

How the values were obtained:
[1] = test system: A. fumigatus AF293; test: Pulmonary aspergillosis in neutropenic ICR mice (Examples 14, 15), prophylaxis, survival; assay type: in vivo, Aspergillus fumigatus
Description: Pulmonary aspergillosis: ICR mice (10/grp) were made neutropenic by cyclophosphamide on Day −4 (150 mg/kg), and CPM/cortisone on Day −1 (150/175 mg/kg). Intranasal infection with A. fumigatus AF293 (10^5 CFU/mouse) on Day 0. Prophylaxis CD101 as a single dose (IP; 5, 10, 20 mg/kg) or posaconazole (PO; 2 and 10 mg/kg) 1 day prior to infection. Survival monitored for 10 days.
Pulmonary aspergillosis: ICR mice (10/grp) were made neutropenic by cyclophosphamide on Day −4 (150 mg/kg), and cyclophosphamide/cortisone was given on Day −1 (150/175 mg/kg). Intranasal challenge with A. fumigatus AF293 (10^5 CFU/mouse) was initiated on Day 0 and prophylaxis with CD101 as a single dose (IP; 5, 10, 20 mg/kg) or posaconazole (PO; 2 and 10 mg/kg) was started 1 day prior to infection. Survival was monitored for 10 days.

[2] = test system: Aspergillus fumigatus strain AF293; test: Murine model of pulmonary aspergillosis (Example 16), survival and lung burden; assay type: in vivo; conditions: for Group Geometric mean / Log10 Group Geometric mean / Log10 reduction from vehicle control: terminal lung burden
Description: Animal strain and housing. Mice used in these studies were supplied by Charles River (Margate UK) and were specific pathogen free. The strain of mice used was ICR (also known as CD1 Mice) which is a well characterized outbred murine strain. Male mice were 11-15 g on receipt and allowed to acclimatize for at least 7 days.
Immunosuppression. Mice were immunosuppressed on Day −4 with 150 mg/kg cyclophosphamide administered intraperitoneally (IP), and on Day −1 with 150 mg/kg cyclophosphamide IP and 175 mg/kg cortisone acetate administered subcutaneously (SC). To prevent bacterial infection due to the immunosuppression mice were given once daily 50 mg/kg ceftazidime.
Preparation of Organism and Infection. A. fumigatus strain AF293 inoculum was prepared from spore cultures grown on Sabouraud Dextrose agar (SAB) containing 50 μg/mL chloramphenicol (SABC) in vented tissue culture flasks. Following incubation for 7-10 days at 30° C., spore cultures were washed in sterile phosphate buffered saline (PBS) containing 0.05% Tween 80. Spore count was determined using a haemocytometer and spores were diluted in PBS to ˜6.9×10^6 CFU/mL. Inoculum concentration was confirmed by quantitative culture onto SABC agar.
Neutropenic mice lungs were infected with 0.04 mL (0.02 mL/nare) of ˜4.17×10^6 CFU/mL (˜1.67×10^5 CFU/mouse) of A. fumigatus AF293 by intranasal (IN) instillation under temporary 2.5% isoflurane induced anesthesia.
Preparation of Test Articles. Micafungin (Mycamine, Astellas) was provided as a 50 mg vial (Lot 02323002, expiry 08/2017) and was prepared as per manufacturer's instructions by adding 5 mL saline for injection (SFI) directly into the vial to make up a 10 mg/mL stock solution. This solution was then diluted further in SFI to a working concentration of 0.5 mg/mL. […] It was prepared fresh once and stored at 4° C. until required.
Posaconazole (Noxafil 40 mg/mL oral suspension, Merck Sharp & Dohme Limited) was provided as a 40 mg/mL oral suspension (Lot N00801, expiry 04/2019). This suspension was then diluted further in water for infection (WFI) to a working concentration of 0.2 and 1 mg/mL. The suspension was administered orally (PO) at 10 mL/kg for 2 and 10 mg/kg doses respectively, was prepared fresh once and stored at 4° C. until required.
Test article CD101 stock was prepared at 6 mg/mL in 10% DMSO/1% Tween 20 diluent. A clear non particulate solution was obtained following gentle mixing. […] All doses were administered IP at 10 mL/kg. The study doses were kept at 4° C. until required.
Treatment. For this study, treatments were initiated on Day 1 pre infection according to treatment groups outlined in Table 22. A total of 36 mice (6/treatment group) were used in the study.
Endpoints. The primary endpoint for this study was survival within agreed ethical limits (>20% weight loss, severe hypothermia <34° C., inability to reach food or drink, severe hunching). Mice were monitored by daily weight measurements with observations as frequently as clinical condition required.
Mice presenting with severe clinical deterioration were humanely euthanized using an overdose of pentobarbitone administered by IP injection following clinical assessment and the time of death was recorded. Animal carcasses were stored at −20° C. before quantitative assessment of burden.
Ten days post infection all surviving animals were weighed and had their clinical condition assessed prior to being euthanized. Final survival numbers were recorded and analysed as described below and carcasses frozen at −20° C. prior to further processing.
Lung burden. A secondary endpoint for the study was terminal lung tissue burden. Immediately following confirmation of death, carcasses were frozen at −20° C. prior to tissue dissection and processing. The frozen carcasses were thawed at room temperature, the lungs removed and placed into pre-weighed bead-beating tubes containing 2 mL of PBS and subjected to mechanical disruption. […]

[3] = test system: A. fumigatus (ATCC 13073); test: Disseminated infection of immune competent DBA/2 mice, prophylaxis, survival; assay type: in vivo, Aspergillus fumigatus; conditions: 3 mg/kg IP 1 hour after infection
Description: (§1) A. fumigatus (ATCC 13073) growth was taken from 96 hour potato dextrose agar (PDA) and re-suspended in 0.1% Tween 20. The culture was resuspended in 1 mL cold PBS (>1.0×10^8 CFU/mL, OD620 2.3-2.8). The culture was then diluted in PBS to final cellular densities of 1.0×10^7 CFU/mL. The actual colony counts were determined by plating dilutions on PDA plates to confirm inoculation concentration. The actual inoculum count was 1.30×10^7 CFU/mL.
Groups of 6 immune competent female DBA/2 mice weighing 18±2 g were used. On Day 0, animals were inoculated (0.1 mL/mouse) by intravenous (IV) injection into the tail vein with A. fumigatus (ATCC 13073), 1.30×10^6 CFU per mouse. CD101 at 3, 10 and 30 mg/kg as prophylaxis was administered subcutaneously (SC) once starting 5, 3 or 1 day before inoculation. In addition, CD101 at 3 mg/kg SC and the reference, amphotericin B, at 3 mg/kg by intraperitoneal (IP) injection were administered one hour after infection (See Table 2).
(§2) A 50 percent or more (≥50%) increase in the survival rate compared to the vehicle control group indicates significant anti-infective activity. The health observations including body weight, hunched posture, ruffled fur, immobility and hypothermia were recorded daily for 14 days.

[4] = test system: Candida auris; test: Murine model of disseminated candidiasis (immunosuppressed CD-1 mice), treatment; assay type: in vivo; conditions: 0.3 mg/kg IP, 2 doses; Day 14
Description: Female 6-8 week old CD-1 mice were immunosuppressed with cyclophosphamide (200 mg/kg) 3 days prior to infection and 150 mg/kg 1 day post-infection. On the day of infection, mice were inoculated with 3×10^7 C. auris blastospores via the lateral tail vein. Mice were randomized into 5 groups (n=5 for colony forming units (CFU) and n=10 for survival): CD101 20 mg/kg administered by intraperitoneal (IP) injection, fluconazole 20 mg/kg administered per os (PO), amphotericin B 0.3 mg/kg IP, and a vehicle control. Treatments were administered 2 hours post-infection (Day 1) and again on Day 4 of the study for a total of 2 doses. Mice were monitored daily and a survival curve was generated. CFU groups were sacrificed on Day 8 of the study. One kidney was removed from each mouse, homogenized, plated on potato dextrose agar (PDA), and incubated at 35° C. for 2 days to determine CFU. The remaining survival mice were monitored until the end of the study (Day 14).

[5] = test system: A. fumigatus (ATCC 13073); test: Disseminated infection of neutropenic ICR mice, prophylaxis, survival; assay type: in vivo, Aspergillus fumigatus; conditions: 3 mg/kg IP 1 hr after infection
Description: as §1, with “Inoculum Preparation. A.” for “A.”, “hr” for “hour”, “2.0×10^5” for “1.0×10^7”, “1.85×10^5” for “1.30×10^7”
A. fumigatus (ATCC 13073) disseminated infection (IV). Groups of 6 female ICR mice weighing 22±2 g were used. Animals were immunosuppressed by three intraperitoneal (IP) injections of cyclophosphamide (the first at 6 mg/mouse 3 days before inoculation, the second and third at 2 mg/mouse on Day 1 then Day 4 after inoculation). On Day 0, animals were inoculated (0.1 mL/mouse) by intravenous (IV) injection into the tail vein with A. fumigatus (ATCC 13073), 1.85×10^4 CFU per mouse. CD101 at 5, 10 and 20 mg/kg as prophylaxis was administered subcutaneously (SC) once starting 5, 3 or 1 day before inoculation. […]
as §2, with “days. Animals found moribund were to be humanely sacrificed with CO2 asphyxiation in the study.” for “days.”

[6] = test system: C. albicans; test: In vitro susceptibility testing (CLSI M27-A3); assay type: cell-based; conditions: Candida albicans, 24 h
Description: (§3) Strains. Ten clinical Candida strains were used for the in vivo treatment studies, including four C. albicans, three C. glabrata, and three C. parapsilosis strains (Table 18). This group was selected to encompass phenotypic variability in susceptibility to triazoles and echinocandins and based on similar fitness in the animal model as defined by the amount of growth in control animals over 24 h. The organisms were maintained, grown, and quantified on Sabouraud's dextrose agar (SDA) plates.
(§4) In vitro susceptibility testing. All isolates were tested in accordance with the standards in CLSI document M27-A3. The MICs were determined visually after 24 h of incubation as the lowest concentration of drug that causes a significant diminution (≥50%) of growth compared to controls. MICs were determined on three separate occasions in duplicate.

[7] = test system: C. glabrata; test: In vitro susceptibility testing (CLSI M27-A3); assay type: cell-based, Candida glabrata; conditions: Nakaseomyces glabratus, 24 h
Description: as §3, §4

[8] = test system: C. parapsilosis; test: In vitro susceptibility testing (CLSI M27-A3); assay type: cell-based, Candida parapsilosis; conditions: Lodderomyces parapsilosis, 24 h
Description: as §3, §4

CC[C@@H]([C@H](C)O)n1ncn(-c2ccc(N3CCN(c4ccc(OC[C@@H]5CO[C@@](Cn6cncn6)(c6ccc(F)cc6F)C5)cc4)CC3)cc2)c1=O [Posaconazole, posaconazole]
survival rate ([1]; 2 mg/kg PO one day prior to infection, 10 days): no survivors
survival rate ([1]; 10 mg/kg PO one day prior to infection, vs control): statistically-significant increase in survival rate relative to control
Mean Survival ([2]; 2 mg/kg PO once, Day −1): 77.5 h
Median Survival ([2]; 2 mg/kg PO once, Day −1): 69.0 h
survival time post infection, range ([2]; 2 mg/kg PO once, Day −1): 69 to 114 h
survival vs vehicle (conclusion) ([2]; 2 mg/kg once one day pre-infection): did not show any improvement in survival
Mean Survival ([2]; 10 mg/kg PO once, Day −1): 212 h and 211.5 h
Median Survival ([2]; 10 mg/kg PO once, Day −1): could not be estimated; also recorded: cannot estimate
survival time post infection, range ([2]; 10 mg/kg PO once, Day −1): 69 to 240 h
mice that survived to the end of the study ([2]; 10 mg/kg PO once, Day −1, 6 mice per group, 10 days): 5 mice
mice surviving to the end of the study ([2]; 10 mg/kg once 1 day pre-infection): > 80%
Group Geometric mean ([2]; 2 mg/kg PO Day −1): 1.14 × 10^4 CFU/g
Log10 Group Geometric mean ([2]; 2 mg/kg PO Day −1): 4.06 CFU/g
Log10 reduction from vehicle control ([2]; 2 mg/kg PO Day −1): 0.11 CFU/g
Group Geometric mean ([2]; 10 mg/kg PO Day −1): 2.75 × 10^3 CFU/g
Log10 Group Geometric mean ([2]; 10 mg/kg PO Day −1): 3.44 CFU/g
Log10 reduction from vehicle control ([2]; 10 mg/kg PO Day −1): 0.73 CFU/g

C[C@@H]1[C@H](O)[C@@H](C)/C=C/C=C/C=C/C=C/C=C/C=C/C=C/[C@H](O[C@@H]2O[C@H](C)[C@@H](O)[C@H](N)[C@@H]2O)C[C@@H]2O[C@](O)(C[C@@H](O)C[C@@H](O)[C@H](O)CC[C@@H](O)C[C@@H](O)CC(=O)O[C@H]1C)C[C@H](O)[C@H]2C(=O)O [amphotericin B, reference compound]
14-day survival [3]: significant increase in the 14-day survival
percent survival at the end of the study [4]: 30%
14-day survival [5]: significant increase in the 14-day survival

CCCCCOc1ccc(-c2ccc(-c3ccc(C(=O)N[C@H]4C[C@@H](O)[C@@H](O)NC(=O)[C@@H]5[C@@H](O)[C@@H](C)CN5C(=O)[C@H]([C@@H](C)O)NC(=O)[C@H]([C@H](O)[C@@H](O)c5ccc(O)cc5)NC(=O)[C@@H]5C[C@@H](O)CN5C(=O)[C@H]([C@@H](C)O)NC4=O)cc3)cc2)cc1 [Anidulafungin, anidulafungin, reference compound] ({pTerphenylCO(4''-OnC5H11)}-[Orn(4R-OH,5R-OH)]T[Hyp][hTyr(3S-OH,4S-OH)]T[Pro(3S-OH,4S-Me)]; lactam 1-C)
MIC ([6]; strain 98-17): 0.03 µg/mL (≈ 0.0263 µM)
MIC ([6]; strain 98-210): 0.015 µg/mL (≈ 0.0132 µM)
MIC ([6]; strain 580): 0.015 µg/mL (≈ 0.0132 µM)
MIC ([6]; strain K-1): 0.015 µg/mL (≈ 0.0132 µM)
MIC ([7]; strain 5592, read-out: MIC): 0.06 µg/mL (≈ 0.0526 µM)
MIC ([7]; strain 10956 (FKS2_HS1_F659V)): 1 µg/mL (≈ 0.877 µM)
MIC ([7]; strain 35315, read-out: MIC): 0.25 µg/mL (≈ 0.219 µM)
MIC ([8]; strain 20423.072): 1 µg/mL (≈ 0.877 µM)
MIC ([8]; strain 20477.048): 2 µg/mL (≈ 1.75 µM)
MIC ([8]; strain 20519.069): 4 µg/mL (≈ 3.51 µM)
